Target: human GPR40 (Homo sapiens, UniProt O14842)
Assay: Calcium mobilization assay, agonistic activity on GPR40
Assay type: cell-based
Details: cells expressing human GPR40 (hGPR40-1321N1)
Experimental: Cell Culture and Transfection. 1321N1 cells stably transfected with the human GPR40 were kindly provided by Euroscreen (Gosselies, Belgium). hGPR40-1321N1 cells were grown in Dulbecco's modified Eagle's medium supplemented with 10% (v/v) heat-inactivated fetal calf serum, 1% sodium pyruvate, 100 U/ml penicillin, 100 μg/ml streptomycin, and 400 μg/ml G418. 1321N1, HEK293 cells were grown in Dulbecco's modified Eagle's medium supplemented with 10% (v/v) heat-inactivated fetal calf serum, 1% sodium pyruvate, 100 U/ml penicillin, and 100 μg/ml streptomycin. All cells were kept at 37° C. in a 5% CO2 atmosphere. […]
Calcium Mobilization Assays. Calcium measurements were performed using a NOVOstar® microplate reader with a built-in pipetor (BMG LabTech, Offenburg, Germany). Cells were seeded in 96-well tissue-culture plates at a density of 30,000 cells per well. […] For testing of agonists, 20 μl of a ten-fold concentrated test compound solution was injected sequentially into separate wells and fluorescence was measured at 520 nm (bandwidth 25 nm) for 50 intervals of 0.4 seconds each. […] Concentration-inhibition curves in the presence of the test compounds were obtained by preincubating the cells with the compounds for 30 min at 37° C. prior to injection of agonist.

human GPR40, sequence (O14842 whole entry): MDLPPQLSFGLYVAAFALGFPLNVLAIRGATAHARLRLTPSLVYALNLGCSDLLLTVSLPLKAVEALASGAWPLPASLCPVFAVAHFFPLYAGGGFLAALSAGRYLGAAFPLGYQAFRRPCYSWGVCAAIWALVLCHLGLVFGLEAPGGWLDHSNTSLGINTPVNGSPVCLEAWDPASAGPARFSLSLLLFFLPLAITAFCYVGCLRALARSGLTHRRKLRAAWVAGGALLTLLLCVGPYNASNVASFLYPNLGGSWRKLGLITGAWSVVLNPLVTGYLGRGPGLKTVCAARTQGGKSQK

| GPR40 agonistic activity (pEC50) | SMILES |
| --- | --- |
| 7.02 | O=C(O)CCc1ccc(C#Cc2ccccc2)cc1 [Example A5, 3-(4-(Phenylethynyl)phenyl)propanoic acid] |
| 7.36 | Cc1cccc(C#Cc2ccc(CCC(=O)O)cc2)c1 [Example A7, 3-(4-(m-Tolylethynyl)phenyl)propanoic acid] |
| 6.05 | O=C(O)CCc1ccc(C#Cc2cccc(CO)c2)cc1 [Example A8, 3-(4-((3-(Hydroxymethyl)phenyl)ethynyl)phenyl)propanoic acid] |
| 7.49 | Cc1ccccc1C#Cc1ccc(CCC(=O)O)cc1 [Example A9, 3-(4-(o-Tolylethynyl)phenyl)propanoic acid] |
| 7.04 | N#Cc1cccc(C#Cc2ccc(CCC(=O)O)cc2)c1 [Example A11, 3-(4-((3-Cyanophenyl)ethynyl)phenyl)propanoic acid] |
| 6.45 | O=Cc1cccc(C#Cc2ccc(CCC(=O)O)cc2)c1 [Example A13, 3-(4-((3-Formylphenyl)ethynyl)phenyl)propanoic acid] |
| 7.05 | O=C(O)CCc1ccc(C#Cc2cccc(C(F)(F)F)c2)cc1 [Example A14, 3-(4-((3-(Trifluoromethyl)phenyl)ethynyl)phenyl)propanoic acid] |
| 7.13 | Cc1cc(C)cc(C#Cc2ccc(CCC(=O)O)cc2)c1 [Example A15, 3-(4-((3,5-Dimethylphenyl)ethynyl)phenyl)propanoic acid] |
| 7.06 | Cc1cccc(C#Cc2ccc(CCC(=O)O)cc2)c1C [Example A16, 3-(4-((2,3-Dimethylphenyl)ethynyl)phenyl)propanoic acid] |
| 5.96 | Nc1cccc(C#Cc2ccc(CCC(=O)O)cc2)c1 [Example A17, 3-(4-((3-Aminophenyl)ethynyl)phenyl)propanoic acid] |
| 6.81 | C#Cc1cccc(C#Cc2ccc(CCC(=O)O)cc2)c1 [Example A18, 3-(4-((3-Ethynylphenyl)ethynyl)phenyl)propanoic acid] |
| 7.05 | CCc1ccccc1C#Cc1ccc(CCC(=O)O)cc1 [Example A30, 3-(4-((2-Ethylphenyl)ethynyl)phenyl)propanoic acid] |
| 5.95 | Cc1cc(C#Cc2ccc(CCC(=O)O)cc2)ccn1 [Example A32, 3-(4-((2-Methylpyridin-4-yl)ethynyl)phenyl)propanoic acid] |
| 4.96 | O=C(O)CCc1ccc(C#Cc2ncccc2[N+](=O)[O-])cc1 [Example A34, 3-(4-((3-Nitropyridin-2-yl)ethynyl)phenyl)propanoic acid] |
| 7.37 | O=C(O)C1CC1c1ccc(C#Cc2cc(Cl)nc(Cl)c2)cc1 (stereo not drawn) [Example A35, 2-(4-((2,6-Dichloropyridin-4-yl)ethynyl)phenyl)cyclopropanecarboxylic acid] |
| 6.00 | O=C(O)CCc1ccc(C#Cc2ccccc2-c2ccccc2)cc1 [Example A40, 3-(4-(Biphenyl-2-ylethynyl)phenyl)propanoic acid] |
| 6.38 | Cc1cccc(C)c1C#Cc1ccc(CCC(=O)O)cc1 [Example A50, 3-(4-((2,6-Dimethylphenyl)etnynyl)phenyl)propanoic acid] |
| 6.66 | COc1ccccc1C#Cc1ccc(CCC(=O)O)cc1 [Example A51, 3-(4-((2-Methoxyphenyl)ethynyl)phenyl) acid] |
| 6.35 | O=C(O)CCc1ccc(C#Cc2cccc(O)c2)cc1 [Example A52, 3-(4-((3-Hydroxyphenyl)ethynyl)phenyl)propanoic acid] |
| 6.73 | CC(=O)c1ccccc1C#Cc1ccc(CCC(=O)O)cc1 [Example A53, 3-(4-((2-Acetylphenyl)ethynyl)phenyl)propanoic acid] |
| 4.79 | O=C(O)CCc1ccc(C#Cc2ccccc2O)cc1 [Example A58, 3-(4-((2-Hydroxyphenyl)ethynyl)phenyl)propanoic acid] |
| 6.24 | O=C(O)CCc1ccc(C#Cc2ccccc2CO)cc1 [Example A59] |

Same assay, conditions: cells expressing human GPR40 (hGPR40-1321N1), read-out: GPR40 agonistic activity (pEC50) (converted)

| EC50 | SMILES |
| --- | --- |
| 1320 nM | O=C(O)COc1ccc(C#Cc2ccccc2)cc1 [Example A1, 2-(4-(Phenylethynyl)phenoxy)acetic acid] |
| 3630 nM | Cc1ccccc1C#Cc1ccc(OCC(=O)O)cc1 [Example A2, 2-(4-(o-Tolylethynyl)phenoxy)acetic acid] |
| 29500 nM | Cc1ccc(C#Cc2ccc(OCC(=O)O)cc2)cc1 [Example A3, 2-(4-(p-Tolylethynyl)phenoxy)acetic acid] |
| 562 nM | Cc1cccc(C#Cc2ccc(OCC(=O)O)cc2)c1 [Example A4, 2-(4-(m-Tolylethynyl)phenoxy)acetic acid] |
| 85.1 nM | O=C(O)CCc1ccc(C#Cc2cccc3ccccc23)cc1 [Example A6, 3-(4-(1-Naphthylethynyl)phenyl)propanoic acid] |
| 57.5 nM | O=C(O)CCc1ccc(C#Cc2cccc([N+](=O)[O-])c2)cc1 [Example A12, 3-(4-((3-Nitrophenyl)ethynyl)phenyl)propanoic acid] |
| 1910 nM | O=C(O)CCc1ccc(C#Cc2cccc(-c3cn(Cc4ccccc4)nn3)c2)cc1 [Example A19, 3-(4-((3-(1-Benzyl-1H-1,2,3-triazol-4-yl)phenyl)ethynyl)phenyl)propanoic acid] |
| 8130 nM | O=C(O)CCc1ccc(C#Cc2ccccn2)cc1 [Example A20, 3-(4-(Pyridin-2-ylethynyl)phenyl)propanoic acid] |
| 2750 nM | O=C(O)CCc1ccc(C#Cc2cccnc2)cc1 [Example A21, 3-(4-(Pyridin-3-ylethynyl)phenyl)propanoic acid] |
| 115 nM | O=C(O)CCc1ccc(C#Cc2ccnc(Cl)c2)cc1 [Example A22, 3-(4-((2-Chloropyridin-4-yl)ethynyl)phenyl)propanoic acid] |
| 3800 nM | Cc1cccc(C#Cc2ccc(CCC(=O)O)cc2)n1 [Example A23, 3-(4-((6-Methylpyridin-2-yl)ethynyl)phenyl)propanoic acid] |
| 4790 nM | O=C(O)COc1ccc(C#Cc2cccc(O)c2)cc1 [Example A24, 2-(4-((3-Hydroxyphenyl)ethynyl)phenoxy)ethanoic acid] |
| 132000 nM | O=C(O)COc1ccc(C#Cc2ccc(O)cc2)cc1 [Example A25, 2-(4-((4-Hydroxyphenyl)ethynyl)phenoxy)ethanoic acid] |
| 112000 nM | O=C(O)COc1ccc(C#Cc2ccc(CO)cc2)cc1 [Example A26, 2-(4-((4-(Hydroxymethyl)phenyl)ethynyl)phenoxy)ethanoic acid] |
| 56.2 nM | O=C(O)CCc1ccc(C#Cc2cc(Cl)nc(Cl)c2)cc1 [Example A33, 3-(4-((2,6-Dichloropyridin-4-yl)ethynyl)phenyl)propanoic acid] |
| 525 nM | O=C(O)CCc1ccc(C#Cc2cccc(OCc3ccccc3)c2)cc1 [Example A55, 3-(4-((3-(Benzyloxy)phenyl)ethynyl)phenyl)propanoic acid] |
| 77.6 nM | C#CCOc1cccc(C#Cc2ccc(CCC(=O)O)cc2)c1 [Example A56, 3-(4-((3-(Prop-2-ynyloxy)phenyl)ethynyl)phenyl)propanoic acid] |
| 145 nM | C=CCOc1cccc(C#Cc2ccc(CCC(=O)O)cc2)c1 [Example A57, 3-(4-((3-(Allyloxy)phenyl)ethynyl)phenyl)propanoic acid] |
| 316 nM | Cc1ccc(S(=O)(=O)OCCc2ccccc2C#Cc2ccc(CCC(=O)O)cc2)cc1 [Example A61, 3-(4-((2-(2-(Tosyloxy)ethyl)phenyl)ethynyl)phenyl)propanoic acid] |

| SMILES | EC50 |
| --- | --- |
| O=C(O)[C@@H]1C[C@H]1c1ccc(C#Cc2ccccc2)cc1 (relative stereo) [Example A29, trans-2-(4-(Phenylethynyl)phenyl)cyclopropanecarboxylic acid] | 145 nM |
| Cc1ccccc1C#Cc1ccc(C2CC2C(=O)O)cc1 (stereo not drawn) [Example A36, 2-(4-(o-Tolylethynyl)phenyl)cyclopropanecarboxylic acid] | 138 nM |
| Cc1cccc(C#Cc2ccc(C3CC3C(=O)O)cc2)c1 (stereo not drawn) [Example A37, 2-(4-(m-Tolylethynyl)phenyl)cyclopropanecarboxylic acid] | 93.3 nM |
| Cc1ccc(C#Cc2ccc(C3CC3C(=O)O)cc2)cc1 (stereo not drawn) [Example A38, 2-(4-(p-Tolylethynyl)phenyl)cyclopropanecarboxylic acid] | 309 nM |

From patent US8586607B2, “Compounds for the treatment of metabolic diseases” (Syddansk Universitet, priority 2008, dated 2013)
